Experimental data from patent US20240228542A1, “LYTIC DOMAIN FUSION CONSTRUCTS, CHECKPOINT INHIBITORS, AND METHODS OF MAKING AND USING SAME” (A28 Therapeutics Inc., priority 2020, published 2024).
“And” between values parts separate entries of the source, which are not always exact repeats. Equal entries are not always repeated. “Also recorded” adds a separate entry of the source. Where two headings read alike, the source gives them in different places.

What was measured:
[1] = tested on: SKOV-3 cells; assay: Time course of cytotoxicity in SKOV-3 cells (MTT); assay type: cell-based, human
Source text: (§1) Membranes of non-cancerous cell lines are neutral and are resistant to cytolytic peptides, in contrast to cancer cell lines, which have a high phosphatidic acid content in their outer membrane.
(§2) The melanoma cell line studied was MDA-MB-435S (estrogen receptor alpha negative), breast cancer cell lines MCF-7 and T47D (estrogen receptor alpha positive), ovarian cancer cell lines (OVCAR-3 and SKOV-3), prostate cancer (LNCaP), the non-malignant breast epithelial cell line MCF-10A and the mouse fibroblast cell line NIH:3T3.
(§3) Cells were seeded into 96 well plates at a density of 10,000 cells/well. […] Controls contained USP saline or 0.1% TritonX-100™ as reference for 0 and 100% cell death, respectively. Incubations were terminated by removing the culture media after 2 minutes, 5 minutes, 15 minutes, 30 minutes, 1 hour, 2 hours, 6 hours, 24 and 48 hours. Cell viability was assessed through formazan conversion assay (MTT assay, (CellTiter 96 Aqueous One, Promega # G3582). Formazan conversion was determined using a BioRad Benchmark Plus microplate spectrophotometer dual wavelengths at 490/630 nm at room temperature).
(§4) Data were calculated as fraction of absorption in TritonX-100™ containing wells representing 100% cell death versus 0% cell death in saline containing wells. Cytotoxicity was determined as ICso using GraphPad Prism version 5.01 for Windows, GraphPad Software, San Diego California USA according to the program for sigmoidal dose response with variable slope using constraint values of 0 and 100%. 4 wells of each individual set of two 96 well plates were compared and analyzed. Statistical analysis for significance was determined by a two-tailed Student's T-test.

[2] = tested on: PC-3 xenograft; assay: PC-3 prostate cancer xenograft; assay type: in vivo, Nu/Nu mice; settings: for tumor growth: PC-3 xenograft, CLIP71 5 mg/kg
Method: In brief, Nu/Nu male mice, outbred strain, age 6 weeks (Charles River) were injected subcutaneously with a PC-3 cells/Matrigel suspension (1×10^6 cells/mouse). Treatment was started on day 15 after tumor cell injection when the tumors were established and continued on days 22 and 29. The doses for the 3 weekly injections were 2, 0.2 and 0.02 mg/kg body weight, given as a bolus single intravenous injection via lateral tail vein.
A group of 12 tumor bearing mice was sacrificed on day 15 and served as baseline group. All mice were necropsied 35 and 36 days after tumor cell injection. Tumor volumes and bodyweights were recorded twice weekly during the study, as well as overall veterinarian examination of mice was conducted.
(§5) Primary tumors, liver, kidney, pancreas, heart, lung, and spleen were collected, fixed in formalin and prepared for histological evaluation. Tumor weights were measured at necropsy, part of the tumors were frozen at −80° C. for LH/CG and LHRH receptor assay determination.

[3] = tested on: MDA-MB-435S xenograft; assay: MDA-MB-435S xenograft, minimal effective dose, once weekly; assay type: in vivo, Nu/Nu mice
Method: To determine the minimal effective dose necessary to reduce MDA-MB-435S xenograft weights in a single dose regimen, Nu/Nu female mice, outbred strain, age 5 weeks (Charles River), were injected (s.c.) into the interscapular region with a MDA-MB-435S (passage #249)/Matrigel suspension (2.4×10^6 cells/mouse) [Leuschner 2006].
Each group consisted of 16 mice, which were injected once a week for 3 weeks. A group of 16 mice was sacrificed at the time of treatment start to serve as baseline. Saline injections served as control groups. During the entire study tumor volumes were recorded twice weekly.
Treatment started on day 16 after tumor cell injection when the tumors were established and continued on days 23 and 30. All remaining mice were necropsied 37 days after tumor cell injection.
Treatment response was determined by tumor weights and tumor weight change at necropsy compared to saline controls and untargeted CLIP71 treatment. Primary tumors were collected, weighed and prepared for histological evaluation in formalin fixation with 10% PBS buffered formalin. Statistical evaluation of data sets were conducted in GraphPad Prizm 4 and significance calculated by Wilcoxon signed-rank test.

[4] = tested on: MCF-7 cells; assay: Time course of cytotoxicity in MCF-7 cells (MTT); assay type: cell-based, human; settings: for incubation time to maximal efficacy: MCF-7 cells
Source text: as §1, §2, §3, §4

[5] = tested on: MDA-MB-435S cells; assay: Time course of cytotoxicity in MDA-MB-435S cells (MTT); assay type: cell-based, human; settings: for IC50: MDA-MB 435S; for incubation time to maximal efficacy: MDA-MB-435S cells
Source text: as §1, §2, §3, §4

[6] = tested on: OVCAR-3 cells; assay type: cell-based, human; settings: for incubation time to maximal efficacy: OVCAR-3 cells
Source text: as §1, §2, §3, §4

[7] = tested on: OVCAR-3 xenograft; assay: OVCAR-3 ovarian cancer xenograft; assay type: in vivo, Nu/Nu mice; settings: for tumor volume: CLIP71 2 mg/kg, cisplatinum 10 mg/kg
Method: In brief, Nu/Nu female mice, inbred strain, age 5 weeks (Harlan-Sprague Dawley) were injected subcutaneously with a NIH:OVCAR-3 cells/Matrigel suspension (4.6×10^6 cells/mouse). Treatment was started on day 33 after tumor cell injection when the tumors were established and continued on days 41 and 47. The doses for the 3 weekly injections were 0.02, 0.2 and 2 mg/kg body weight, given as a single bolus intravenous injection via lateral tail vein administered once a week for three weeks on days 33, 41 and 47. Necropsies were conducted on day 52. Data are presented as mean […]SEM. Arrows show dosing.
A group of 9 tumor bearing mice was sacrificed on day 33 and served as baseline group. All mice were necropsied 51-52 days after tumor cell injection. Tumor volumes and bodyweights were recorded twice weekly during the study, as well as overall veterinarian examination of mice was conducted.
as §5
As a biomarker for drug activity, CA 125 was determined in serum, collected from each individual mouse at necropsy using a Enzyme Linked Immunoassay for quantitative determination of ovarian cancer antigen CA125 (Assay kit Genway, Biotech, Inc. San Diego, CA, Catalog #40-052-115009, #BC-1013 according to the manufacturer).
LHRH receptor levels were assessed from formalin fixed tumors. Quantitative immunoperoxidase image analysis was conducted with the Ventana Image Analysis System (VIAS) adjunctive computer assisted image analysis system functionally connected to an interactive microscope (Axio Imager). The quantitative analysis was conducted with the program for quantification of Her2/neu receptor that included morphometric and colorimetric analysis. Receptor status results were reported as percentage of cells showing positive staining of the LHRH receptors under the following criteria: 0 non-immunoreactive, 1+: 1-25% positive, 2+: 26-50% positive, 3+: 51-75% positive cells.

[8] = tested on: NIH:3T3; assay type: cell-based, mouse; settings: noncancerous cell line 3T3
Method: as §2, §3
Data were calculated as fraction of absorption in TritonX-100™ containing wells representing 100% cell death versus 0% cell death in saline containing wells. Cytotoxicity was determined as ICso using GraphPad Prism version 5.01 for Windows, GraphPad Software, San Diego California USA according to the program for sigmoidal dose response with variable slope using constraint values of 0 and 100%. 4 wells of each individual set of two 96 well plates were compared and analyzed. […]

[9] = MDA-MB-435S.luc, 1 × 3 wk, 22 d, minimal effective dose study

Sequence: KFAKFAKKFAKFAKKFAK [Phor18, reference compound]
- IC50 ([1]; SKOV-3 (SKOV-3 and HEK 1A), 24 hours, read-out: IC50): 11.8 µM
- IC50 ([1]; SKOV-3 (p40), listed as CLIP71, read-out: IC50 with increasing incubation time): 86 µM and 96 µM and 53 µM and 50 µM
- tumor growth [2]: tumor growth was observed
- tumor volumes and tumor weights ([3]; CLIP71 plus LHRH 0.2/0.122 mg/kg): did not decrease tumor weights
- incubation time to maximal efficacy [4]: 24 h
- IC50 ([5]; 24 hours): 55.1 µM
- IC50 ([5]; 48 hours): 3 µM
- incubation time to maximal efficacy [5]: 24 h
- incubation time to maximal efficacy [6]: 24 h
- tumor weights ([7]; OVCAR-3 xenograft at necropsy): not effective in reducing tumor weights
- tumor volume ([7]; OVCAR-3 xenograft): tumor growth was observed; also recorded: no reduction in tumor volume
- IC50 [8]: > 40 µM

Sequence: KFAKFAKKFAKFAKKFAKQHWSYGLRPG [Phor18-LHRH]
- incubation time to maximal efficacy ([1]; SKOV-3 cells): 24 h
- lowest concentration with tumor volume reduction compared to saline controls and CLIP71 ([2]; 22 days after tumor cell injection, p<0.001): 0.002 mg/kg bodyweight
- Median Tumor Weight vs Baseline p < 0.05 (doses) ([2]; PC-3, 1 × 3 wk, 21 d): 0.2
- tumor growth [2]: effective in arresting tumor growth
- Median Tumor Weight vs Baseline p < 0.05 (lowest dose) [3, 9]: 2 µg/kg
- Median Tumor Weight vs Saline P < 0.05 (lowest dose) [3, 9]: 0.2 µg/kg
- Remarks / histology of tumors ([3]; Phor18-LHRH at doses as low as 0.0002 mg/kg, CLIP71/LHRH 0.2/0.122 mg/kg): significant necrosis
- IC50 ([4]; MCF-7 (p152), read-out: IC50 with increasing incubation time): 1.8 to 3.4 µM
- incubation time to maximal efficacy [4]: 1 h and 0.5 to 1 h
- IC50 ([5]; 0.5 hour): 1.2 µM
- IC50 ([5]; 1 hour): 0.6 µM
- incubation time to maximal efficacy [5]: 1 h and 0.5 to 1 h
- IC50 ([6]; OVCAR-3 (p47), read-out: IC50 with increasing incubation time): 0.5 µM
- incubation time to maximal efficacy [6]: 1 h and 0.5 to 1 h
- lowest concentration with tumor volume reduction compared to baseline ([7]; 42 days after tumor cell injection, p<0.001): 0.2 mg/kg bodyweight
- Median Tumor Weight vs Baseline p < 0.05 (doses) ([7]; OVCAR-3, 1 × 3 wk, 20 d): 200 µg/kg
- Remarks / histology of treated tumors ([7]; OVCAR-3 xenograft): significant necrosis
- tumor volume ([7]; OVCAR-3 xenograft): Tumor volumes decreased
- CA125 secretion (serum) ([7]; greatest at 0.2 and 2 mg/kg (p<0.0002 vs saline)): reduced
- reduction of LHRH receptor levels ([7]; treated tumors, immunoperoxidase image analysis): 1-2 score points
- IC50 [8]: > 10 µM
